In this experiment the target is T1, VcINDY (Vibrio cholerae, UniProt Q9KNE0).
T1 construct: gene VC_A0025
The experiment in a line: intrinsic tryptophan fluorescence quenching ([…] nm excitation, […] nm emission), quadratic binding fit. The conditions noted are these: read-out: apparent Kd.

Each structure is given as a SMILES string.

Regarding `O=C(O)CCC(=O)O` [succinate], the Kd was found to be 92.2 ± 47.4 µM.
